Experimental data taken from patent US7507739B2, “6-[(substituted)phenyl]triazolopyrimidines as anticancer agents” (Wyeth, priority 2003, dated 2009).
Marks after values point to notes of the source that are not given here.

Assays:
[1] = Water uptake and hydrate stability at relative humidity; format: physicochemical; conditions: room temperature; for water absorbed: 80-100% relative humidity, about 24 h, forms dihydrate; for stability of dihydrate: 5-100% relative humidity
Method: To a slurry of 5-chloro-6-{2,6-difluoro-4-[3-(methylamino)propoxy]phenyl}-N-[(1S)-2,2,2-trifluoro-1-methylethyl][1,2,4]triazolo[1,5-a]pyrimidin-7-amine hydrochloride (7.50 g, 15.0 mmol) and water (100 mL) is added sodium hydroxide solution (10 N, 2.0 mL, 20 mmol) dropwise. Then, fumaric acid (3.48 g, 30 mmol) is added. The mixture is stirred for about 15-20 min and then heated to about 65-75° C. and stirred until all of the solid dissolves. The solution is filtered and the filtrate is cooled to about 0-5° C. over about 1 h. The mixture is stirred for 1 h and then filtered and the collected solid washed with cold water and isopropanol. The solid is dried under vacuum at about 60° C./10 mmHg for about 20 h to give a white solid (6.54 g, 75%) in anhydrous form. A portion of the compound is placed in a drying dish at 80-100% relative humidity (RH) and room temperature for about 24 h.
A mixture of 5-chloro-6-{2,6-difluoro-4-[3-(methylamino)propoxy]phenyl}-N-[(1S)-2,2,2-trifluoro-1-methylethyl][1,2,4]triazolo[1,5-a]pyrimidin-7-amine (9.00 g, 19.4 mmol) and succinic acid (2.75 g, 23.3 mmol) in water (90 mL) is stirred for about 15-20 min and then heated to about 65-75° C. The solution is filtered and the filtrate is cooled to about 0-5° C. over about 1 h. The mixture is stirred for about 1 h and then filtered and the collected solid washed with cold water (2×9 mL) and cold isopropanol (9 mL). The solid is dried under vacuum at about 40° C./10 mmHg for about 20 h to give a white solid in anhydrous form (6.6 g, 73%). A portion of the compound is placed in a drying dish at 80-100% relative humidity (RH) and room temperature for about 24 h.

COLO 205 cells = assay: MTS cytotoxicity test with COLO 205 cells; format: cell-based, human; conditions: 3 days, Succinate Salt
In short: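 COLO 205 human colon carcinoma cells, 1000 per well, exposed 3 days at 37° C to nine 2-fold dilutions, typical final top concentration 5 μM. MTS absorbance normalized to time-0 plate; IC50 is concentration giving colour yield midway between untreated and fully killed controls.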

[2] = system: H157 Human Non-Small Cell Lung Carcinoma; assay: Human tumor xenograft test, H157; format: in vivo, athymic mice; conditions: for T/C on day 0 / T/C on day 2 / T/C on day 5 / T/C on day 8 / T/C on day 12 / T/C on day 15: days 0, 7
Method: The ability of compounds of this invention to inhibit tumor growth in animals is studied in the athymic mouse xenograft standard pharmacological test. Female nu/nu mice in an outbred albino background are obtained from Charles River Laboratories (Wilmington, Mass.). Animals are injected subcutaneously on the flank with the desired tumor cell suspension. Several days later, mice with tumors of approximately 150 mm^3 are selected from those injected (staged) and randomly distributed into groups of 5-10. The day of staging is called day 0. Compounds of the invention, usually formulated in saline (exceptions are noted in tables), are administered to animals by intravenous injection or oral gavage on various schedules starting on day 0 or 1, as noted in the tables. The control group in each experiment is dosed with vehicle on the same schedule. Tumor size is measured every 3-7 days with calipers in two orthogonal dimensions, and tumor volume is calculated from the formula volume=[(length×width^2)/2].
Tumor/Control (T/C) is obtained by dividing the mean tumor volume of the treated group by the mean tumor volume of the control group on each measurement day. A treatment dose is defined as active if it produced a statistically significant T/C of 0.50 or less. A p value≦0.05, determined by one-side Student's t-test, is required for statistical significance. A treatment dose is defined as toxic if more than 10% of the animals died from a compound-related toxicity.

SMILES	water absorbed [1] [%]	stability of dihydrate [1]	IC50 (COLO 205 cells) [nM]	T/C on day 0 ([2]; H157, 10 mg/kg IV)	T/C on day 2 ([2]; H157, 10 mg/kg IV)	T/C on day 5 ([2]; H157, 10 mg/kg IV)	T/C on day 8 ([2]; H157, 10 mg/kg IV)	T/C on day 12 ([2]; H157, 10 mg/kg IV)	T/C on day 15 ([2]; H157, 10 mg/kg IV)	T/C on day 0 ([2]; H157, 20 mg/kg IV)	T/C on day 2 ([2]; H157, 20 mg/kg IV)	T/C on day 5 ([2]; H157, 20 mg/kg IV)	T/C on day 8 ([2]; H157, 20 mg/kg IV)	T/C on day 12 ([2]; H157, 20 mg/kg IV)	T/C on day 15 ([2]; H157, 20 mg/kg IV)	tumor growth inhibition (activity call) ([2]; H157 NSCLC, 20 and 10 mg/kg intravenously on days 0 and 7)
CNCCCOc1cc(F)c(-c2c(Cl)nc3ncnn3c2N[C@@H](C)C(F)(F)F)c(F)c1.O=C(O)/C=C/C(=O)O [Example 2b, 5-Chloro-6-{2,6-difluoro-4-[3-(methylamino)propoxy]phenyl}-N-[(1S)-2,2,2-trifluoro-1-methylethyl][1,2,4]triazolo[1,5-a]pyrimidin-7-amine Fumarate Salt]	5.8	stable at room temperature and at 5-100% relative humidity														
CNCCCOc1cc(F)c(-c2c(Cl)nc3ncnn3c2N[C@@H](C)C(F)(F)F)c(F)c1.O=C(O)CCC(=O)O [Example 2c, 5-Chloro-6-{2,6-difluoro-4-[3-(methylamino)propoxy]phenyl}-N-[(1S)-2,2,2-trifluoro-1-methylethyl][1,2,4]triazolo[1,5-a]pyrimidin-7-amine Succinate Salt]	5.8	stable at room temperature and at 5-100% relative humidity	38	1.07	1.09	1.00	0.96	0.49*	0.38*	0.98	0.96	0.50**	0.51*	0.44*	0.24**	active
